PMC3074252 (Journal of medicinal chemistry, 2011)
Where two headings read alike, the source gives them in different places.

How the values were obtained:
[1] = test system: PC12 cells expressing G93A SOD1-YFP; assay type: cell-based
[2] = Sprague-Dawley rats, in PBS
[3] = mice, 50 mg/kg peritoneally, 1 h after injection
[4] = test system: G85R SOD1; assay: High content G85R-SOD1 aggregation assay; assay type: cell-based
[5] = in vivo; details: Sprague-Dawley, rat, iv, 1 mg/kg
[6] = test system: 68 in vitro radioligand binding assays; details: 10 μM, in duplicate, 68 assays

| Structure (SMILES) | activity in cytotoxicity protection assay [1] | further results |
| --- | --- | --- |
| CCCCN1C(=O)CC(=O)NC1=O [Compound 1, 1-Butylpyrimidine-2,4,6(1H,3H,5H)-trione] | no activity | – |
| O=C1CC(=O)N(C2CCCCC2)C(=O)N1 [Compound 2, 1-Cyclohexylpyrimidine-2,4,6(1H,3H,5H)-trione] | no activity | – |
| O=C1CC(=O)N(CCc2ccccc2)C(=O)N1CCc1ccccc1 [Compound 7, 1,3-Diphenethylpyrimidine-2,4,6(1H,3H,5H)-trione] | – | AUC/Dose ([2]; 1 mg/kg i.v.): 126 ng · h/mL/dose; AUC/Dose ([2]; 1 mg/kg p.o.): 124 ng · h/mL/dose; blood level [3]: 150 µM; brain level [3]: 50 µM; reduction in aggregates, fluorescence images ([4]; cells treated with MG132 plus 10 μM compound): significant reduction in aggregates; reduction in the number of aggregates of G85R SOD1 ([4]; dose dependence): concentration dependent; clearance [5]: 133 mL/min/kg; inhibitory effect across profiling screen [6]: No significant inhibitory effect |
| O=C1CC(=O)N(CCN2CCOCC2)C(=O)N1CCc1ccc(F)cc1 [Compound 34, 1-(4-Fluorophenethyl)-3-(2-morpholinoethyl)pyrimidine-2,4,6(1H,3H,5H)-trione] | inactive | – |
| O=c1cc(Cl)n(CCc2ccccc2)c(=O)n1CCc1ccccc1 [Compound 46, 6-chloro-1,3-diphenethylpyrimidine-2,4(1H,3H)-dione] | inactive | – |
| COc1cc(=O)n(CCc2ccccc2)c(=O)n1CCc1ccccc1 [Compound 47, 6-methoxy-1,3-diphenethylpyrimidine-2,4(1H,3H)-dione] | inactive | – |
| O=C1C(=O)N(CCc2ccccc2)C(=O)N1CCc1ccccc1 [Compound 49, 1,3-Diphenethylimidazolidine-2,4,5-trione] | none was active | – |
| O=C1C(=O)N(C2CCCCC2)C(=O)N1C1CCCCC1 [Compound 51, 1,3-Dicyclohexylimidazolidine-2,4,5-trione] | none was active | – |
| O=C1CCC(=O)N(CCc2ccccc2)C(=O)N1CCc1ccccc1 [Compound 52, 1,3-Diphenethyl-1,3-diazepane-2,4,7-trione] | none was active | – |
